Experiments:
[1] = Stability of SM-PN and SM-PO in aqueous buffer by 31P NMR; type: physicochemical; conditions: room temperature
Experimental: Next, we assessed the stability of the phosphonamidic and phosphonic acid in aqueous buffers at pH 2, pH 3.5, pH 7.4, pH 8.5, and pH 11. Therefore, SM‐PN and SM‐PO were added in the corresponding buffers and monitored for 48 h at room temperature via ^31P‐NMR with triphenylphosphinoxide (TPPO) as an internal standard (Figure S2). […] Furthermore, we evaluated the stability of the peptide probes bio‐PN and bio‐PO in human lysate for subsequent experiments. These peptides were added in HEK293T cell lysate, and changes in stability were recorded for 18 h via ^31P‐NMR, in which inorganic phosphate served as an internal standard. […] Nonetheless, both peptides display sufficient stability for follow‐up studies.
Figure S2: pH dependent stability of phosphonamidic and phosphonic acids at room temperature monitored by ^31P NMR. a) Decay of starting material SM-PN. […] At pH 2.0 the compound was already hydrolyzed in minutes before the next measurement. b) Decay of SM-PO in identical conditions.
Internal standard triphenylphosphine oxide (TPPO, 12 µL of a 100 mM stock in DMSO, final concentration 2 mM) and SM-PN or SM-PO (36 µL of a 50 mM stock in DMSO, final concentration 3 mM) were added in microcentrifuge tubes containing 552 µL of each test buffer solution (0.1% TFA pH 2, 50 mM NaOAc pH 3.5, 50 mM Tris pH 7.4, 50 mM Tris pH 8.5, 50 mM TEAB pH 11.0, containing 10% D2O (492 μL buffer and 60 μL D2O) and mixed right before the measurement. The mixtures were transferred to NMR tubes and one-dimensional ^31P-NMR spectra were recorded for each sample at room temperature, in intervals of 4 h over the course of 48 h on a Bruker AV-III 600 or AV-III 300 spectrometer. For analysis, the spectra were plotted in MestReNova and the intensity of the ^31P-NMR signal was analyzed by integration.

[2] = Thiol reactivity with glutathione (UPLC-UV/MS); conditions: 1 mM compound, 10 mM GSH (10 equivalents), 25°C / room temperature, 16 h, caffeine (peptides) or TPPO (SM) internal standard, n = 3; for consumption of starting material to glutathione adduct, pH 7.4: Tris pH 7.4, 10% DMSO; for consumption of starting material to glutathione adduct, pH 8.5: Tris pH 8.5, 10% DMSO
Experimental: After verifying the stability of the phosphonamidic and phosphonic acid warheads at physiological and slightly basic pH, we aimed to investigate the reactivity towards endogenous thiol concentrations. For this, 1 mM bio‐PN or bio‐PO and 1 mM caffeine as an internal standard, as well as 1 mM SM‐PN or SM‐PO and 1 mM TPPO (internal standard), were incubated at room temperature with 10 equivalents (10 mM) glutathione (GSH), and the outcome was followed by UPLC‐MS (Figure S4).
FIGURE 3 Time‐dependent decay of bio‐PN, bio‐PO, SM‐PN, and SM‐PO (1 mM) in the presence of 10 mM GSH with 1 mM caffeine or TPPO as internal standard. The assay was performed at 25°C in Tris buffer (10% DMSO) at (a) pH 7.4, (b) pH 8.5. Results are presented as mean ± standard deviation (n = 3). (c) Labeling conditions to assess by ESI‐MS the ability of bio‐PN, bio‐PO, SM‐PN, and SM‐PO to covalently bind recombinant PTP1B. Stacked deconvoluted MS spectra of the initial time point (t0) of PTP1B labeling with (d) bio‐PO after 4 h: full labeling, (e) bio‐PN after 20 h: ∼80% labeling, (f) SM‐PO after 20 h: no labeling, (g) SM‐PN after 20 h: no labeling.
Figure S4: Monitoring of thiol reactivity with GSH as a model thiol of peptide and small molecule phosphonamidic and phosphonic acids by UPLC-UV/MS. a) Reaction conditions for bio-PN and bio-PO. b) Exemplary UV chromatograms of bio-PO at pH 8.5 and at 0 and 16 hours, highlighting the internal standard (caffeine) and the compound. c) Reaction conditions for SM-PN and SM-PO. d) Exemplary UV chrommatogramms of SM-PN at pH 8.5 and at 0 and 16 hours, highlighting the internal standard (TPPO) and the compound. All experiments were prepared in triplicates. [picture]
For testing the thiol reactivity of bio-PN and bio-PO at pH 7.4, 10 µL of a 10 mM caffeine (internal standard) stock solution in Tris buffer pH 7.4 (final concentration 1 mM) and 10 µL of a 10 mM peptide stock solution in DMSO were added in 75 µL of 50 mM Tris buffer, pH 7.4. Immediately prior to the measurement, 5 µL of a 200 mM stock solution of reduced glutathione (final concentration 10 mM, 10.0 eq.) in Tris buffer (pH adjusted to 7.4) were added. The solutions were transferred to a sample vial and measured by UPLC-UV/MS at room temperature and at time points t0, t0.5h, t1h, t2h, t4h, t8h, t16h 1 µL of the reaction mixture was injected. For the analysis, the peak area of the internal standard was correlated with that of the starting material. The same protocol was followed at pH 8.5 using Tris buffer adjusted accordingly.
Similar conditions were applied in the case of SM-PN and SM-PO. […]

stability in neutral and basic pH ([1]; 50 mM Tris pH 7.4, 50 mM Tris pH 8.5, 50 mM TEAB pH 11.0, 3 mM compound, 48 h) | hydrolysis ([1]; pH 2 (0.1% TFA), 3 mM compound, TPPO internal standard) | hydrolysis of the starting material ([1]; pH 3.5 (50 mM NaOAc), 3 mM compound, 10% D2O, TPPO internal standard, 48 h) | SMILES | consumption of starting material to glutathione adduct, pH 7.4 [2] | consumption of starting material to glutathione adduct, pH 8.5 [2] | stability at all tested pH values ([1]; pH 2, pH 3.5, pH 7.4, pH 8.5 and pH 11, 3 mM compound, 48 h)
good stability in neutral and basic pH | already hydrolyzed in a few minutes | about 80% | C#CP(=O)(O)Nc1ccc(CCNC(=O)CCCC[C@@H]2SC[C@@H]3NC(=O)N[C@@H]32)cc1 [SM-PN, N-(4-(2-biotinamidoethyl)phenyl)-P-ethynylphosphonamidic acid] | no consumption of the starting material to a glutathione adduct was observed | no consumption of the starting material to a glutathione adduct was observed | –
– | – | – | C#CP(=O)(O)Oc1ccc(CCNC(=O)CCCC[C@@H]2SC[C@@H]3NC(=O)N[C@@H]32)cc1 [SM-PO, 4-(2-biotinamidoethyl)phenyl ethynylphosphonic acid monoester] | no consumption of the starting material to a glutathione adduct was observed | no consumption of the starting material to a glutathione adduct was observed | excellent stability in all tested pH values
